Assay results as given in article PMC11645656, “MRGPRX4 mediates phospho-drug associated pruritus in a humanized mouse model” (Science translational medicine, 2024).
“And” between values parts separate entries of the source, which are not always exact repeats. Equal values may be shown once. *1 amine or outer side, *2 acyl side, *3 side chain or, on linkers, in order; H or OH if unused. Where a SMILES comes first, the peptide text is derived from it. Bridges are numbered along the chain shown (N, C = ends). [ ]: non-standard residue; d: D form. X1 = CC(=O)NC(C(=O)OC(C(C)C)C(N[*:1])C(=O)[*:2])C(O)C(C)C; PhLac = O=C(O)[CH](O)Cc1ccccc1; NMeT = CN[CH](C(=O)O)[CH](C)O; NMeA = CN[CH](C)C(=O)O; NMeDha = C=C(NC)C(=O)O

Key:
MRGPRX4 (S83) = target: T1, MRGPRX4 (S83) (Homo sapiens, UniProt Q96LA9, L83S); assay: EC50 determination, intracellular calcium mobilization in MRGPRX4 stably expressed HEK293 cells (FLIPR Calcium 5, Flexstation-3); format: cell-based; parameters: Fig. 1D dose-response, calcium mobilization response (individual replicate) / calcium mobilization response (Fig. 1D dose-response raw data): unit not given here; details: for calcium mobilization response (Fig. 1D dose-response raw data) / Fig. 1D dose-response, calcium response at Concentration (M): individual replicate values; for EC50: MRGPRX4 stably expressed HEK293 cells, calcium mobilization, read-out: EC50; for Hill coefficient: dose-response curve fitting, table S1; for Fig. 1D dose-response, calcium response at Concentration (M): propofol series
T1 construct: expressed in transfected cells
Protocol: HEK293 cells and MRGPRX4 stably expressed HEK293 cells were seeded in 100 μl culture media on 96-well plates at a density of 40,000 cells per well and incubated overnight. The next day, the media were replaced with a dye-loading solution from the FLIPR Calcium 5 assay kit (Molecular Devices), diluted in Hank's Balanced Salt Solution (HBSS) with 20 mM HEPES, pH 7.4. After 1 h of incubation at 37°C, cells were allowed to recover for 10 min in the dark at room temperature prior to performing intracellular calcium mobilization assay in a Flexstation-3 instrument with SoftMax®Pro 7.1 software (Molecular Devices). Serial concentrations of tested drugs were prepared in HBSS/HEPES solution at 3X concentration. […] Compounds were tested in triplicates and the signals were averaged. Responses were determined by subtracting the minimum signal (at the baseline before adding the drug) from the maximum signal (obtained after drug stimulation). Four-parameter logistic (4PL) curve fit was used to plot the dose-response curves. […] Both dose-response curve fitting and EC50s calculation are computed with GraphPad Prism software (version: 6.o or above).

[1] = test system: MRGPRX4-expressing HEK293 cells (Gαq signaling pathway); assay: Pharmacological blocker experiments: phospho-drug evoked calcium response in MRGPRX4-expressing HEK293 cells after inhibitor preincubation; details: 30 min preincubation; 10 µM YM 254890, 20 µM U73122, 10 µM thapsigargin; stimulated with fospropofol, fosphenytoin or dexamethasone phosphate
Protocol: Various HEK293 cell lines were plated on PDL-coated glass coverslips. […] For pharmacological blocker experiments, cells were pre-incubated with signaling pathway inhibitors, including YM254890, U73122, and thapsigargin, for 30 min before imaging.
Traces of [Ca2+] from MRGPRX4-expressing HEK293 cells stimulated with (A) 1 µM
U73122 (middle), or 10 µM sarco/endoplasmic reticulum Ca2+-ATPase inhibitor thapsigargin
(right) for 30 min before imaging.
independent experiments, each performed in quadruplicate.

T1 sequence (Q96LA9 whole entry L83S): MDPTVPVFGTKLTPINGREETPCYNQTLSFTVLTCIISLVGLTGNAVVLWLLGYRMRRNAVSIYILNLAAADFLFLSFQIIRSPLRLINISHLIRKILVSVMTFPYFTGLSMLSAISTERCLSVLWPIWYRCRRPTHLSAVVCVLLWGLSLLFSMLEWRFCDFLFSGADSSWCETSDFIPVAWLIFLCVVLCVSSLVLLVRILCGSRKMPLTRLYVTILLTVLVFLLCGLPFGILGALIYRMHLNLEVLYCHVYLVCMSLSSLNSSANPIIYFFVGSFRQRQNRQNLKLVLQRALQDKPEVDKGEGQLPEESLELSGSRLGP

## CCC1(c2ccccc2)NC(=O)NC1=O (centres unmarked) [Phenylethylhydantoin]
MRGPRX4 (S83); concentration 4.88281e-7 M
  calcium mobilization response (Fig. 1D dose-response raw data): -36.084 and -46.830 and -25.168 and -25.995 and -41.232 and -40.854 and -21.141 and -50.216 and -36.724
MRGPRX4 (S83); concentration 9.76563e-7 M
  calcium mobilization response (Fig. 1D dose-response raw data): -38.906 and -40.253 and -36.747 and -35.963 and -45.530 and -34.413 and -90.977 and -3.770 and -21.159
MRGPRX4 (S83); concentration 1.95313e-6 M
  calcium mobilization response (Fig. 1D dose-response raw data): -39.850 and -47.267 and -41.649 and -23.282 and -47.762 and -57.722 and -64.532 and -47.904 and -16.330
MRGPRX4 (S83); concentration 3.90625e-6 M
  calcium mobilization response (Fig. 1D dose-response raw data): -41.691 and -47.727 and -40.039 and -70.885 and -55.070 and -3.502 and -50.619 and -10.963 and -67.875
MRGPRX4 (S83); concentration 7.8125e-6 M
  calcium mobilization response (Fig. 1D dose-response raw data): -54.750 and -48.340 and -51.910 and -49.343 and -57.168 and -48.489 and -88.910 and -37.952 and -28.139
MRGPRX4 (S83); concentration 1.5625e-5 M
  calcium mobilization response (Fig. 1D dose-response raw data): -44.078 and -57.965 and -55.228 and -49.591 and -44.073 and -63.607 and -50.842 and -52.493 and -53.936
MRGPRX4 (S83); concentration 3.125e-5 M
  calcium mobilization response (Fig. 1D dose-response raw data): -43.665 and -49.381 and -54.677 and -65.107 and -76.615 and -6.000 and -68.649 and -47.158 and -31.916
MRGPRX4 (S83); concentration 6.25e-5 M
  calcium mobilization response (Fig. 1D dose-response raw data): -55.764 and -53.161 and -56.227 and -7.830 and -129.161 and -28.161 and -12.225 and -71.995 and -80.931
MRGPRX4 (S83); concentration 0.00025 M
  calcium mobilization response (Fig. 1D dose-response raw data): -45.731 and -49.520 and -42.661 and -67.761 and -17.367 and -52.783 and -55.357 and -16.011 and -66.544
MRGPRX4 (S83); concentration 0.0005 M
  calcium mobilization response (Fig. 1D dose-response raw data): -37.983 and -36.120 and -36.080 and -77.623 and -5.808 and -26.753 and -42.653 and -37.379 and -30.151

## C[C@]12C=CC(=O)C=C1CC[C@@H]1[C@@H]2[C@@H](O)C[C@@]2(C)[C@H]1CC[C@]2(O)C(=O)COP(=O)(O)O [Prednisolone phosphate]
MRGPRX4 (S83)
  EC50: 0.267 µM
  Hill coefficient: 0.753

## CC(C)c1cccc(C(C)C)c1O[C@@H]1O[C@H](C(=O)O)[C@@H](O)[C@H](O)[C@H]1O [Propofol b-D-glucuronide]
MRGPRX4 (S83); 9.76563e-7 M
  Fig. 1D dose-response, calcium response at Concentration (M): 33.404 and 17.610 and 15.299 and 5.092 and 25.748 and 35.472 and 37.279 and 14.971 and 14.062
MRGPRX4 (S83); 1.95313e-6 M
  Fig. 1D dose-response, calcium response at Concentration (M): 24.553 and 28.290 and 26.471 and 25.162 and 11.839 and 42.312 and 38.770 and 25.122 and 15.422
MRGPRX4 (S83); 3.90625e-6 M
  Fig. 1D dose-response, calcium response at Concentration (M): -0.931 and -0.509 and -0.147 and -0.531 and -0.497 and -0.558 and -1.252 and -0.171 and -0.163
MRGPRX4 (S83); 7.8125e-6 M
  Fig. 1D dose-response, calcium response at Concentration (M): -3.944 and -3.544 and -1.450 and -3.087 and -3.091 and -2.761 and -3.250 and -1.367 and -4.322
MRGPRX4 (S83); 1.5625e-5 M
  Fig. 1D dose-response, calcium response at Concentration (M): -14.193 and -2.564 and -12.325 and -15.196 and -3.788 and -10.098 and -11.561 and -10.981 and -6.540
MRGPRX4 (S83); 3.125e-5 M
  Fig. 1D dose-response, calcium response at Concentration (M): -0.025 and -0.623 and -1.002 and -0.534 and -0.882 and -0.234 and -0.728 and -0.769 and -0.154
MRGPRX4 (S83); 6.25e-5 M
  Fig. 1D dose-response, calcium response at Concentration (M): -11.462 and -7.089 and -18.181 and -19.274 and -11.464 and -5.994 and -9.636 and -15.344 and -11.752
MRGPRX4 (S83); 0.00025 M
  Fig. 1D dose-response, calcium response at Concentration (M): -8.452 and -1.759 and -25.311 and -28.879 and -1.342 and -5.301 and -7.817 and -14.781 and -12.923
MRGPRX4 (S83); 0.0005 M
  Fig. 1D dose-response, calcium response at Concentration (M): -2.705 and -17.232 and -3.163 and -5.843 and -6.495 and -10.762 and -7.609 and -4.103 and -11.388
MRGPRX4 (S83); 0.001 M
  Fig. 1D dose-response, calcium response at Concentration (M): -9.560 and -7.574 and -9.738 and -14.721 and -4.551 and -7.600 and -11.650 and -7.050 and -8.173

## Cn1nnc(-c2ccc(-c3ccc(N4C[C@H](COP(=O)(O)O)OC4=O)cc3F)cn2)n1 [Tedizolid phosphate]
MRGPRX4 (S83)
  EC50: 0.157 µM
  Hill coefficient: 1.352

## COc1ccc2c(c1)CC[C@@H]1[C@@H]2CC[C@]2(C)[C@@H](NCCCCCCN3C(=O)C=CC3=O)CC[C@@H]12 [U73122]
[1]
  Effect of inhibitor on phospho-drug evoked calcium response: abolished the calcium response

## C=C1C(=O)NC(C)C(=O)N(C)C(C)C(=O)NC(C(OC(=O)C(NC(C)=O)C(O)C(C)C)C(C)C)C(=O)N(C)C(C(C)OC)C(=O)OC(C)C(NC(C)=O)C(=O)OC(Cc2ccccc2)C(=O)N1C (centres unmarked) [YM-254890] (Ac-T[PhLac][NMeDha]A[NMeA][X1][NMeT](Me); ester 1-C; configuration not given here)
[1]
  Effect of inhibitor on phospho-drug evoked calcium response: abolished the calcium response

## C/C=C(/C)C(=O)O[C@H]1C(C)=C2[C@H]([C@@H]1OC(=O)CCCCCCC)[C@@](C)(OC(C)=O)C[C@H](OC(=O)CCC)[C@@]1(O)[C@H]2OC(=O)[C@@]1(C)O [thapsigargin]
[1]
  Effect of inhibitor on phospho-drug evoked calcium response: abolished the calcium response

## Dexamethasone palmitate
MRGPRX4 (S83); Concentration 9.76563e-7 M
  Fig. 1D dose-response, calcium mobilization response (individual replicate): -18.225 and -22.739 and -7.984 and -16.162 and -15.021 and -13.070 and 2.408 and -2.265 and -6.745
MRGPRX4 (S83); Concentration 1.95313e-6 M
  Fig. 1D dose-response, calcium mobilization response (individual replicate): -6.511 and -7.350 and 3.472 and -4.164 and -15.203 and -5.200 and 2.167 and -2.706 and -6.484
MRGPRX4 (S83); Concentration 3.90625e-6 M
  Fig. 1D dose-response, calcium mobilization response (individual replicate): -3.747 and 10.479 and -10.773 and -3.912 and -11.558 and -2.335 and 1.476 and 2.520 and -1.305
MRGPRX4 (S83); Concentration 7.8125e-6 M
  Fig. 1D dose-response, calcium mobilization response (individual replicate): -30.862 and -16.831 and -16.502 and -2.263 and -11.827 and -17.176 and -5.630 and 3.868 and -9.469
MRGPRX4 (S83); Concentration 1.5625e-5 M
  Fig. 1D dose-response, calcium mobilization response (individual replicate): -23.657 and 30.652 and -26.797 and 1.282 and -0.449 and -0.613 and 8.674 and 6.385 and -0.252
MRGPRX4 (S83); Concentration 3.125e-5 M
  Fig. 1D dose-response, calcium mobilization response (individual replicate): 88.602 and 69.392 and 95.399 and 41.739 and 60.580 and 65.413 and 42.682 and 17.645 and 71.002
MRGPRX4 (S83); Concentration 6.25e-5 M
  Fig. 1D dose-response, calcium mobilization response (individual replicate): 155.837 and 167.386 and 158.681 and 72.199 and 72.835 and 105.522 and 59.878 and 78.793 and 128.090
MRGPRX4 (S83); Concentration 0.00025 M
  Fig. 1D dose-response, calcium mobilization response (individual replicate): 281.902 and 277.911 and 231.255 and 145.042 and 106.318 and 115.112 and 141.417 and 113.731 and 129.258
MRGPRX4 (S83); Concentration 0.0005 M
  Fig. 1D dose-response, calcium mobilization response (individual replicate): 346.180 and 361.547 and 346.996 and 139.147 and 134.114 and 120.302 and 148.855 and 141.620 and 226.966
MRGPRX4 (S83); Concentration 0.001 M
  Fig. 1D dose-response, calcium mobilization response (individual replicate): 354.688 and 329.354 and 273.082 and 127.830 and 137.045 and 134.530 and 140.483 and 130.182 and 155.284
MRGPRX4 (S83)
  Hill coefficient: 1.502
